This assay deals with α7-subtype of nicotinic receptors (Rattus norvegicus, UniProt Q05941). The experiment in a line: biochemical. It is filed as binding.

SMILES strings stand for the structures. Where a name gives a salt, the structure may show the parent alone.

Sequence of α7-subtype of nicotinic receptors (Q05941 23-502): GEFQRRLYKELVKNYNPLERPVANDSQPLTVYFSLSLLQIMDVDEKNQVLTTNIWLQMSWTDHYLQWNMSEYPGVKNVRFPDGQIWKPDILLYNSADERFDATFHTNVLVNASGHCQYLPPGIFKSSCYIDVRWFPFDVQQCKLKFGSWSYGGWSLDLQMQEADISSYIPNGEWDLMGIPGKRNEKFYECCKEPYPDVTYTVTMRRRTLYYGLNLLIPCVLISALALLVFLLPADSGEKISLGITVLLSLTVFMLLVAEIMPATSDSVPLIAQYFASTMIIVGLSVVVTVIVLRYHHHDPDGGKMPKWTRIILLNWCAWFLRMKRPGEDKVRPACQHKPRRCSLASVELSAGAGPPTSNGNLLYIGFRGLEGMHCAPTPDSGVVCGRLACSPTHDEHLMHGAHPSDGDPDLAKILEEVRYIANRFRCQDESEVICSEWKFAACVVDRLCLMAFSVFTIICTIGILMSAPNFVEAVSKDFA

`c1cc2c(cc1-c1nnc(N3CCN4CCC3C4)o1)OCO2` (stereo not shown) [Compound I, 4-(5-Benzo[1,3]dioxol-5-yl-[1,3,4]oxadiazol-2-yl)-1,4-diaza-bicyclo[3.2.1]octane fumaric acid salt]: the IC50 – broadly, the concentration at which inhibition is half-maximal – is below 100 nM.

(Values after patent US20120071469A1 (priority 2009, published 2012).)
